Laboratory results from patent US7166612B2, “Methods for reducing platelet activation platelet aggregaton or thrombosis” (Beth Israel Deaconess Medical Center, priority 2001, dated 2007).

What was measured:
[1] = tested on: laser-induced thrombi in cremaster arterioles; type: in vivo
Source text: A preferred animal model involves intravital microscopy of laser-induced thrombi. The method is described by Rosen et al., 2001, Am J Pathol 158, 1613–1622, which is incorporated herein by reference. Minor variations of that method were employed as described below.
Experimental mice are pre-anesthetized and surgically prepared. A tracheal tube is placed to facilitate breathing and the jugular vein is canulated to allow for maintenance of anesthetic and introduction of compound. The cremaster muscle is then exteriorized. The muscle is affixed over a glass slide, allowing illumination from below. A steady drip of a sodium-bicarbonate buffered salt solution is maintained throughout the experiment to keep the exposed muscle moist. Blood flow in the muscle is visualized using a 40× water immersion lens and epi-illuminated with an appropriately filtered light source. Alexa 488-labeled anti-mouse CD41 antibody is injected through the jugular canulus to label platelets in vivo.
Thrombosis is initiated by damaging the vessel wall (of a 30 μm vessel) with a laser pulse from a MicroPoint LASER attached to the microscope. A LASER pulse is delivered, causing damage in an area smaller than 1 μm. The recruitment of platelets to the thrombus is then monitored by the accumulation of (activated) Alexa 488-labeled platelets at the ablation site using fluorescence microscopy, and the process is recorded digitally. The method thus permits in vivo analysis of platelet activation as measured by platelet aggregation and thrombosis.
The degree of embolization in an untreated mouse can be quantified using software for image analysis, e.g., BioQuant True Color Windows (Biometrics, Nashville, Tenn.), as described in Rosen et al., 2001, supra. The software package permits the determination of the “integrated optical density” or IOD of the thrombus.
Using quantitative intravital fluorescence videomicroscopy with high temporal resolution (111 images/second), the effect of PDE3 inhibition on the platelet recruitment into thrombi was directly observed over time. Platelets were fluorescently labeled by infusing rat-anti-mouse CD41 and Alexa 488-anti-rat IgG through a cannulated jugular vein. The cremaster microvasculature was exposed and mapped and suitable arteriole segments were selected for laser-induced injury. A series of control injuries were generated prior to infusion of the inhibitory compound. The power and the number of laser pulses required to generate each thrombus was recorded. Platelet accumulation to the thrombi following laser ablation was recorded using digital videomicroscopy. The thrombus total fluorescence in each frame of the videos was analyzed using Slidebook software for digital videomicroscopy. The pyridazinone compound was then infused. Following a 15 minute incubation, a series of experimental injuries were generated 250 μm proximal, with relationship to blood flow, of the first injury and the resultant thrombi were recorded. The power and the number of pulses required to induce the control thrombus was used to induce the experimental thrombus. The control and experimental thrombi constituting a pair were compared for statistical analysis. The total fluorescence intensity of the thrombi before and after the infusion of pyridazinone compound was recorded.
Images from a representative experiment of the recruitment of fluorescently-labeled […] platelets into a growing thrombus over time is shown in FIG. 9A.

[2] = tested on: thromboemboli from laser-induced thrombi; test: thromboembolization from laser-induced thrombi (intravital videomicroscopy); type: in vivo, mouse
Method: (A) Thromboembolic events distal from the thrombus were captured using quantitative intravital fluorescence videomicroscopy with high temporal resolution( (111 frames/second) and the total amount of thromboembolization was calculated by determining the total fluorescence intensity of the fluorescently labeled platelets in thromboemboli. (B) Thromboembolization was recorded before infusion of pyridazinone compound. Platelet accumulation into thrombus is indicated by the gray line. Thromboembolism from the same thrombus is measured over time and is indicated by black bars. Each black bar represents a single thromboembolic event of the indicated fluorescent intensity.
Under these conditions, a dynamic thrombus that undergoes continuous cyclic embolization and re-accumulation is observed. The degree of embolization in an untreated mouse can be quantified using software for image analysis, e.g., BioQuant True Color Windows (Biometrics, Nashville, Tenn.), as described in Rosen et al., 2001, supra. […]
Using quantitative intravital fluorescence videomicroscopy with high temporal resolution, thromboemboli were detected and the total amount of fluorescence of the thromboemboli was measured (FIG. 11A). For this analysis, thromboembolus was defined as a platelet aggregate with a fluorescent intensity two standard deviations above the maximum background fluorescence of the arteriole before injury. […]

CC1CC(=O)NN=C1c1ccc(N)c([N+](=O)[O-])c1 (centres unmarked) [6-(4-Amino-3-nitro-phenyl)-5-methyl-4,5-dihydro-2H-pyridazin-3-one]
stabilized platelet accumulation ([1]; 0.6 mg/kg (P<0.05) and 1.2 mg/kg (P<0.01), in words): dose-dependent inhibition
maximum platelet accumulation compared to absence of compound ([1]; 0.6 and 1.2 mg/kg, P<0.05, in words): statistically significant decrease
time to achieve the maximum rate of platelet recruitment ([1]; after laser injury, not affected by PDE3 inhibition, 0.3 and 1.2 mg/kg): approximately 27 seconds
thromboembolization after infusion ([2]; 1.2 mg/kg, in words): significantly reduced
reduction of embolization ([2]; after injection of compound): greater than 80%
